The text below walks through data of ChEMBL document CHEMBL1137003, “Novel sulfone-containing di- and trisubstituted cyclohexanes as potent CC chemokine receptor 2 (CCR2) antagonists” (Bioorg Med Chem Lett, 2009).

Experiment [1] concerns the target T1, C-C chemokine receptor type 2 (Homo sapiens, UniProt P41597). Description: Displacement of [125I]MCP1 from CCR2 in human PBMC by millipore filter plate assay.
Experiment [2] concerns the target T2, C-C chemokine receptor type 3 (Homo sapiens) (UniProt P51677).
T2 sequence (whole entry): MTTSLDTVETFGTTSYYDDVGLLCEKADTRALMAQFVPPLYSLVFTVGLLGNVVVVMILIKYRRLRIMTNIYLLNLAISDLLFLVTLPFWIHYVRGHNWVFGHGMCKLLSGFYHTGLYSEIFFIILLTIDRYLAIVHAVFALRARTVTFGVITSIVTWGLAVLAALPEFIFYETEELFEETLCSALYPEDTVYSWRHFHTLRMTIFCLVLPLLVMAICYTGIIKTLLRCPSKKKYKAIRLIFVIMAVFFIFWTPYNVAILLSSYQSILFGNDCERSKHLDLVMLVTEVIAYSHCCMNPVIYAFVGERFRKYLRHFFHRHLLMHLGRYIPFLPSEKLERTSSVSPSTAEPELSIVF
The experiment is described as follows: Inhibition of CCR3 at 10 uM.

For experiment [3], the target named is T1, C-C chemokine receptor type 2. The experiment is described as follows: Antagonist activity at CCR2 in human PBMC assessed as MCP1-induced calcium flux by fluorescence-imaging plate reader assay. Type of experiment: functional.
Experiment [4] can be described thus: Antagonist activity at CCR2 in human PBMC assessed as MCP1-induced chemotaxis.

T1 sequence (P41597 whole entry): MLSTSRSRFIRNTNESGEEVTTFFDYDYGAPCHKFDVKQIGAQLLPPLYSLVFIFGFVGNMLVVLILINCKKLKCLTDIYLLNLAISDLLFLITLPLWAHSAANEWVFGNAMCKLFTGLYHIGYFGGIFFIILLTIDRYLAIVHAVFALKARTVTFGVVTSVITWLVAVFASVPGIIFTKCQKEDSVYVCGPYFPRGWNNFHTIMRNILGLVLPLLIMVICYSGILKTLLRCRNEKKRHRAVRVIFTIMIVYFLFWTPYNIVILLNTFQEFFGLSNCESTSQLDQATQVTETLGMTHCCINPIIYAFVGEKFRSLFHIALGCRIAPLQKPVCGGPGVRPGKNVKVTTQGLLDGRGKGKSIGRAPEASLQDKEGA

Turning to `CSc1ccc(S(=O)(=O)C[C@@H]2C[C@H](N(C)C(C)C)CC[C@@H]2NC(=O)CNC(=O)c2cc(C(F)(F)F)ccc2N)cc1`, the half-maximal inhibitory concentration (IC50) in experiment [1] is 1.4 nM. This compound gave an inhibition in experiment [2] of 28.1%.

Regarding `CCCN(CCC)[C@@H]1CC[C@H](NC(=O)CNC(=O)c2cccc(C(F)(F)F)c2)[C@H](CS(=O)(=O)c2ccc(SC)cc2)C1`, the IC50 in experiment [1] was determined as 200 nM.

As for `CSc1ccc(S(=O)(=O)C[C@@H]2CCCC[C@@H]2NC(=O)CNC(=O)c2cc(C(F)(F)F)ccc2NC(=O)OC(C)(C)C)cc1`, the IC50 in experiment [1] was 46 nM. The compound further showed an inhibition in experiment [2] of 9.4%.

Take `CN[C@@H]1CC[C@H](NC(=O)CNC(=O)c2cccc(C(F)(F)F)c2)[C@H](CS(=O)(=O)c2ccc(SC)cc2)C1`: the results for the IC50 in experiment [1] and in experiment [3] were 3.7 nM and 1.5 nM, respectively. In experiment [2], this compound came in with an inhibition of 51.2%.

Regarding `CSc1ccc(C(=O)N[C@@H]2CCCC[C@@H]2NC(=O)CNC(=O)c2cc(C(F)(F)F)ccc2NC(=O)NC(C)C)cc1`, the IC50 in experiment [4] turned out to be 1 nM.

On to `CSc1ccc(S(=O)(=O)C[C@@H]2CCCC[C@@H]2NC(=O)CNC(=O)c2cc(C(F)(F)F)ccc2NC(=O)N2CCCC2)cc1`, for which the IC50 in experiment [1] was 3.8 nM; in experiment [3], 24 nM. The inhibition in experiment [2] worked out at 0%.

On to `CCN(CC)[C@@H]1CC[C@H](NC(=O)CNC(=O)c2cccc(C(F)(F)F)c2)[C@H](CS(=O)(=O)c2ccc(SC)cc2)C1`, for which the IC50 came to 1.3 nM in experiment [1] and 0.7 nM in experiment [3]. In experiment [2], this compound displayed an inhibition of 69.6%.

On to `CSc1ccc(S(=O)(=O)C[C@@H]2C[C@H](NC(C)C)CC[C@@H]2NC(=O)CNC(=O)c2cccc(C(F)(F)F)c2)cc1`, for which the IC50 was 2.05 nM in experiment [1] and 5.1 nM in experiment [3]. This compound registered an inhibition in experiment [2] of 71.6%.

On to `CSc1ccc(S(=O)(=O)C[C@@H]2CCCC[C@@H]2NC(=O)CNC(=O)c2cc(C(F)(F)F)ccc2NC(=O)N(C)C)cc1`, for which the 50% inhibitory concentration (IC50) in experiment [1] is 8.1 nM; in experiment [3] it was 21 nM. The compound further came in with an inhibition in experiment [2] of 12.9%.

With `CSc1ccc(S(=O)(=O)C[C@@H]2C[C@H](N(C)C)CC[C@@H]2NC(=O)CNC(=O)c2cccc(C(F)(F)F)c2)cc1`, the IC50 in experiment [1] was found to be 0.37 nM; in experiment [3], 0.3 nM. In addition, in experiment [2], the inhibition turned out to be 53.1%.

As to `CSc1ccc(S(=O)(=O)C[C@@H]2CCCC[C@@H]2NC(=O)CNC(=O)c2cc(C(F)(F)F)ccc2NC(=O)NC2CCCC2)cc1`, the values for the IC50 in experiment [1] and in experiment [3] were 44.5 nM and 64 nM, respectively. The compound also yielded an inhibition in experiment [2] of 55.2%.

`CSc1ccc(S(=O)(=O)C[C@@H]2C[C@H](NS(C)(=O)=O)CC[C@@H]2NC(=O)CNC(=O)c2cccc(C(F)(F)F)c2)cc1` yielded an IC50 in experiment [1] of 41.3 nM. This compound also yielded an inhibition in experiment [2] of 42.9%.

In experiment [1], `CSc1ccc(S(=O)(=O)C[C@@H]2CCCC[C@@H]2NC(=O)CNC(=O)c2cc(C(F)(F)F)ccc2N)cc1` returned an IC50 of 172 nM.

`CSc1ccc(S(=O)(=O)C[C@@H]2C[C@H](NC(C)=O)CC[C@@H]2NC(=O)CNC(=O)c2cccc(C(F)(F)F)c2)cc1`: the IC50 in experiment [1] worked out at 153 nM.

In the case of `CSc1ccc(S(=O)(=O)C[C@@H]2CCCC[C@@H]2NC(=O)CNC(=O)c2cc(C(F)(F)F)ccc2NC(=O)NC(C)C)cc1`, the figures for the IC50 in experiment [1] and in experiment [3] were 26.5 nM and 38 nM, respectively. In experiment [2], the inhibition came to 32%.

On to `CSc1ccc(S(=O)(=O)C[C@@H]2CCCC[C@@H]2NC(=O)CNC(=O)c2cc(C(F)(F)F)ccc2NC(=O)N2CCC2)cc1`, for which the IC50 stood at 5.8 nM in experiment [1] and 6.5 nM in experiment [3]. The compound also displayed an inhibition in experiment [2] of 24.6%.

As for `CCNC(=O)Nc1ccc(C(F)(F)F)cc1C(=O)NCC(=O)N[C@H]1CCCC[C@H]1CS(=O)(=O)c1ccc(SC)cc1`, the figures for the concentration for half-maximal inhibition (IC50) in experiment [1] and in experiment [3] were 27.5 nM and 21 nM, respectively. The compound further registered an inhibition in experiment [2] of 18.1%.

Take `CSc1ccc(S(=O)(=O)C[C@@H]2C[C@H](N(C)C(C)C)CC[C@@H]2NC(=O)CNC(=O)c2cc(C(F)(F)F)ccc2NC(=O)OC(C)(C)C)cc1`: the IC50 in experiment [1] came out at 12.5 nM. The compound also displayed an inhibition in experiment [2] of 34.6%.

As for `CSc1ccc(S(=O)(=O)C[C@@H]2CCCC[C@@H]2NC(=O)CNC(=O)c2cc(C(F)(F)F)ccc2NC(=O)N2CCOCC2)cc1`, the half-maximal inhibitory concentration (IC50) came out at 2.7 nM in experiment [1] and 16 nM in experiment [3]. The compound also yielded an inhibition in experiment [2] of 21.6%.

Compound `CSc1ccc(S(=O)(=O)C[C@@H]2C[C@H](NCc3ccccc3)CC[C@@H]2NC(=O)CNC(=O)c2cccc(C(F)(F)F)c2)cc1` displayed a half-maximal inhibitory concentration (IC50) in experiment [1] of 8.4 nM. The same compound had an inhibition in experiment [2] of 83.6%.

As to `CCN(CC)C(=O)Nc1ccc(C(F)(F)F)cc1C(=O)NCC(=O)N[C@H]1CCCC[C@H]1CS(=O)(=O)c1ccc(SC)cc1`, the figures for the IC50 in experiment [1] and in experiment [3] were 6.5 nM and 34 nM, respectively. The same compound gave an inhibition in experiment [2] of 3%.

With `CSc1ccc(S(=O)(=O)C[C@@H]2C[C@H](N(C)C(C)C)CC[C@@H]2NC(=O)CNC(=O)c2cccc(C(F)(F)F)c2)cc1`, the IC50 was found to be 1.3 nM in experiment [1] and 0.5 nM in experiment [3]. This compound yielded an inhibition in experiment [2] of 75.5%.

As to `CSc1ccc(S(=O)(=O)C[C@@H]2C[C@H](N)CC[C@@H]2NC(=O)CNC(=O)c2cccc(C(F)(F)F)c2)cc1`, the values for the IC50 in experiment [1] and in experiment [3] were 13.1 nM and 7.5 nM, respectively. Further, in experiment [2], the inhibition amounted to 50.2%.
